Results on two compounds are retold here after patent US8916681B2, “Compound, use and method” (Medical Research Council, priority 2007, dated 2014).

A short description of assay [1]: Fetal weight after kisspeptin treatment (FIG. 6). It counts as in vivo.
Assay [2] relates to plasma LH, GH, prolactin and cortisol. Nature of the assay: Central (third ventricle) infusion in OVX ewes: plasma LH, GH, prolactin, cortisol. It counts as in vivo, sheep. An excerpt: Adult Corriedale ewes were housed under natural lighting and were bilaterally ovariectomized (OVX) at least 1 month before any experimental manipulations. Permanent indwelling third cerebral ventricular (3V) cannulae were implanted in a subsequent surgical procedure as previously described (Barker-Gibb et al., 1995, J. Endocrinol., 147:565-79). Approximately two weeks after 3V surgery, one external jugular vein was cannulated for blood sampling and animals housed in single pens; cannulae were kept patent with heparinized saline.
Ewes were assigned to two treatment groups (n=4 per group); kisspeptin antagonist (diluted in artificial cerebrospinal fluid, aCSF; 150 mM NaCl, 1.2 mM CaCl2, 1 mM MgCl2, 2.8 mM KCl) or control (aCSF only). The following day, infusion lines were connected to 3V cannulae and blood sampling commenced at 07.00 h. Samples were collected every 10 min. After 3 h of sampling, kisspeptin antagonist (or control) was infused into the 3V at a dose of 40 μg/h for 1 h, with an initial loading dose of 10 μg. Both kisspeptin antagonist and vehicle were infused at 200 μl/h for 1 h using Graseby® MS16A infusion pumps (Smiths Medical Australasia Pty. Ltd., Gold Coast, Qld, Australia). After infusion, 3V lines remained in place and blood sampling continued for a further 2 h (total of 6 h). Plasma was harvested immediately from samples, and frozen at −20 C until assayed.
Plasma LH concentrations were measured in duplicate, using the method of Lee et al. (1976, J. Reprod. Fertil., 46:1-6) with NIH-oLH-518 as standard. Assay results were calculated using the program of Burger et al. (1972, J. Lab. Clin. Med., 80:302-12). Assay sensitivity was 0.08 ng/ml and the intra-assay coefficient of variation was less than 10% over the range of 0.3-12.8 ng/ml. A pulse analysis of the LH data was performed based on the method described for GnRH (Clarke, 1993, Endocrinology, 133:1624-32).
All experimental procedures were conducted under a protocol approved by the Monash School of Biomedical Sciences Animal Ethics Committee. Adult Corriedale ewes were housed under natural lighting and were bilaterally ovariectomized (OVX) at least 1 month before any experimental manipulations. Permanent indwelling third cerebral ventricular (3V) cannulae were implanted in a subsequent surgical procedure as previously described (49). Approximately 2 weeks after 3V surgery, one external jugular vein was cannulated for blood sampling and animals housed in single pens; cannulae were kept patent with heparinized saline. Ewes were assigned to two treatment groups (4/group); peptide 234 (diluted in artificial cerebrospinal fluid, aCSF; 150 mM NaCl, 1.2 mM CaCl2, 1 mM MgCl2, 2.8 mM KCl) or control (aCSF only). The following day, infusion lines were connected to 3V cannulae and blood sampling commenced at 07.00 h. Samples were collected every 10 min. After 3 h of sampling, peptide 234 (or control) was infused into the 3V at a dose of 40 μg/h for 1 h, with an initial loading dose of 10 μg. Both peptide 234 and vehicle were infused at 200 μl/h using Graseby® MS16A infusion pumps (Smith Medical Australasia Pty. Ltd.). After infusion, 3V lines remained in place and blood sampling continued for a further 2 h (total of 6 h). Plasma was harvested immediately from samples, and frozen at −20 C until assayed.
Plasma LH concentrations were measured in duplicate, with NIH-oLH-518 as standard (49). Assay sensitivity was 0.1 ng/ml and the intra-assay coefficient of variation was less than 10% over the range of 0.3-12.8 ng/ml. Pulse analysis of the plasma LH data was as previously described (36). Plasma samples were assayed for GH in duplicate using the standard NIDDK-oGH-I-4 and NIDDK-anti-oGH-2 antiserum (50). The assay sensitivity was 1 ng/ml, the intra-assay CV was less than 10% between 4 and 51 ng/ml and the inter-assay CV was 20%.
Plasma prolactin concentrations were measured in duplicate using Sigma, Lot 114F-0558, NOL-7135 as standard (50). […]

The mark [3] stands for this setting: before, during or after infusion.

“Also recorded” adds a separate entry of the source. Non-standard residues stand in square brackets, D forms with d. Residues, ends and D or L forms follow the SMILES beside them.

With `CC(C)C[C@H](NC(=O)CNC(=O)[C@H](Cc1ccccc1)NC(=O)[C@H](CO)NC(=O)[C@H](CC(N)=O)NC(=O)[C@H](Cc1c[nH]c2ccccc12)NC(=O)[C@H](CC(N)=O)NC(=O)[C@@H](N)Cc1ccc(O)cc1)C(=O)N[C@@H](CCCNC(=N)N)C(=O)N[C@@H](Cc1ccccc1)C(N)=O` [Kiss, reference compound], the fetal weight result in assay [1] is given as “decreased”.

Consider `CC(=O)N[C@H](C)C(=O)N[C@@H](CC(N)=O)C(=O)N[C@@H](Cc1c[nH]c2ccccc12)C(=O)N[C@@H](CC(N)=O)C(=O)NCC(=O)N[C@@H](Cc1ccccc1)C(=O)NCC(=O)N[C@H](Cc1c[nH]c2ccccc12)C(=O)N[C@@H](CCCNC(=N)N)C(=O)N[C@@H](Cc1ccccc1)C(N)=O` [Peptide 234] (Ac-[dA]NWNGFG[dW]RF-NH2), for which the “Mean GH” value in assay [2] (After Infusion) was 9.11 ± 1.44 ng/mL; in assay [2] (Before Infusion), 5.11 ± 1.48 ng/mL; in assay [2] (During Infusion, listed as Peptide-234), 14.07 ± 2.78 ng/mL; in assay [2] (During Infusion, listed as peptide 234), “significant increase; also recorded: increased; also recorded: appeared to increase”. Besides, the figures for the “Mean LH” value in assay [2] (After Infusion), in assay [2] (Before Infusion) and in assay [2] (During Infusion) were “significant reduction; also recorded: reduced”, 2.73 ± 0.43 ng/mL and 2.89 ± 0.55 ng/mL, respectively. The LH pulse amplitude in assay [2] (After Infusion (240-360 min), listed as Peptide-234) was 0.68 ± 0.05 ng/mL; in assay [2] (After Infusion (240-360 min), listed as peptide 234), “significant reduction; also recorded: diminished amplitude; also recorded: markedly reduced”; in assay [2] (Before Infusion (0-180 min)), 1.63 ± 0.28 ng/mL; in assay [2] (During Infusion (180-240 min), 40 μg/h, loading dose 10 μg), 1.82 ± 0.52 ng/mL. For the same compound, in assay [2] (after ventricular administration), the “number of LH secretory pulses” value is reported as “markedly reduced”. Moreover, in assay [2] (setting [3]), the cortisol concentrations result is “no effect”. Further, the prolactin concentrations entry in assay [2] (setting [3]) is given as “no effect”.
